Tests used:
[1] = target: T1, human recombinant beta-2 adrenoreceptors (Homo sapiens, UniProt P07550); test: Beta-2 adrenoceptor binding assay ([3H](−)CGP-12177 displacement); conditions: CHO cells expressing human beta-2 adrenoreceptors, [3H](−)CGP-12177 0.3 nM, 120 min
T1 construct: expressed in transfected cells; host or cells: CHO cells
Summary of the method: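 Displacement of [3H](−)CGP-12177 (0.3 nM) from human recombinant beta-2 receptors expressed in CHO cells, measured after 120 min incubation with test compound. Bound radioligand counted by scintillation; IC50 taken from concentration-response curves as 50% of each compound's maximal inhibition.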

Human recombinant PDE4B2 = target: T2, Human recombinant PDE4B2 (Homo sapiens, UniProt Q07343); test: Inhibition of PDE4B4 enzyme activity (PDE Glo Assay); format: biochemical; conditions: human recombinant PDE4B2, 50 nM cAMP; read-out: PDE4 IC50
T2 construct: purchased BPS Bioscience
T2 sequence (Q07343 1-564 isoform Q07343-2): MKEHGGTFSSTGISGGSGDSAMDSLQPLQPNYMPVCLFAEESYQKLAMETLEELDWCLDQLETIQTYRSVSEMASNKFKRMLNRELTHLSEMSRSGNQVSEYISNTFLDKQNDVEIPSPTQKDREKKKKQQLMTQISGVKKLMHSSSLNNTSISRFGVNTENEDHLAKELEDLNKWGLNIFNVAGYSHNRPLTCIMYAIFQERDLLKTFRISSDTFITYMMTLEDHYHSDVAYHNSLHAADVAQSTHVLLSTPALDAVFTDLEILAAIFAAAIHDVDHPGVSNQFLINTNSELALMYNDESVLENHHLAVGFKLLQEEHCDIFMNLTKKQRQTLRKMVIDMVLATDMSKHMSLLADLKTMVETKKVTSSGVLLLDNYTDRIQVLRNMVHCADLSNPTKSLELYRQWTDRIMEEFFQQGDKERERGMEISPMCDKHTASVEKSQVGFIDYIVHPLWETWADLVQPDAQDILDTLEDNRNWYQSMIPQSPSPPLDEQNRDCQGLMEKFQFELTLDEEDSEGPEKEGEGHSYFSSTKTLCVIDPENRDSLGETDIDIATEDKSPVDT
Summary of the method: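 Human recombinant PDE4B2 (0.12 nM) was pre-incubated with compound for 10 min at rt, then 50 nM cAMP was added for 1 hr. After IBMX stop and PKA detection, read-out was Kinase-Glo luminescence. IC50 came from a single-site nonlinear fit of RLU versus concentration.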

[2] = test system: LPS-induced TNF-α release from human peripheral blood mononuclear cells (PBMC); test: Inhibition of LPS-induced TNF-α release from human PBMC; format: cell-based; conditions: LPS 0.4 ng/mL, 6 h, presence or absence of ICI-118551 not given
Summary of the method: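 Ficoll-purified primary PBMC, 100,000 cells/well, pre-incubated 30 min ± 10 μM ICI-118551 (± gives PDE4-only vs PDE4 plus beta-2 activity), then compound 1 h at 37 °C (0.1% DMSO). Stimulated with 0.4 ng/mL LPS for 6 h; supernatant TNF-α by bead cytokine assay; IC50 from single-site fit.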

[3] = target: T1, human recombinant beta-2 adrenoreceptors; test: Functional agonism of human recombinant beta-2 adrenoreceptors expressed in CHO cells (cAMP HTRF); format: cell-based; conditions: CHO cells expressing human beta-2 adrenoreceptors, cAMP elevation, 30 min
Summary of the method: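 CHO cells expressing recombinant receptor incubated with compound for 30 min; intracellular cAMP rise over control read by HTRF. EC50 taken as concentration giving 50% of that compound's own maximal response, with full or partial agonism judged against isoproterenol maximum.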

T1 sequence (P07550 whole entry): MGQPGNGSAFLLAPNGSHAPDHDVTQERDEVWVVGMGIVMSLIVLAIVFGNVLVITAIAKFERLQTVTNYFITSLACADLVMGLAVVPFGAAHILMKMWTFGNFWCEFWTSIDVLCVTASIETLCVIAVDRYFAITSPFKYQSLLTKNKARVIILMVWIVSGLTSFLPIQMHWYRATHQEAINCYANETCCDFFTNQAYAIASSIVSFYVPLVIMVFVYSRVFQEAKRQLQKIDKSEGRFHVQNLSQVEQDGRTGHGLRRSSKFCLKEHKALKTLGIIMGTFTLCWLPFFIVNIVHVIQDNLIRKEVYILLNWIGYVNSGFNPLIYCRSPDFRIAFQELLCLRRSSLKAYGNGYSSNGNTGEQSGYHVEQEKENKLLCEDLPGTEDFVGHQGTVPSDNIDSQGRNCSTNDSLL

SMILES | IC50 [1] | IC50 (Human recombinant PDE4B2) | EC50 [2] | EC50 [3]
COc1cccc(Nc2c(C(N)=O)cnc3c(C)cc(S(=O)(=O)c4cccc(CN(C)C(=O)c5cccc(CC(C)NC[C@H](O)c6ccc(O)c7[nH]c(=O)ccc67)c5)c4)cc23)c1 (stereo partly drawn) [Example 13, 6-[[3-[[3-[2-[[(R)-2-Hydroxy-2-(8-hydroxy-2-oxo-1,2-dihydroquinolin-5-yl)ethyl]amino]propyl]-N-methylbenzamido]methyl]phenyl]sulfonyl]-4-[(3-methoxyphenyl)amino]-8-methylquinoline-3-carboxamide] | < 100 nM | < 100 nM | < 100 nM | < 100 nM
COc1cccc(Nc2c(C(N)=O)cnc3c(C)cc(S(=O)(=O)c4cccc(C(=O)N(C)CCOc5ccc(CCNC[C@H](O)c6ccc(O)c7[nH]c(=O)ccc67)cc5)c4)cc23)c1 [Example 25, (R)-6-((3-((2-(4-(2-((2-hydroxy-2-(8-hydroxy-2-oxo-1,2-dihydroquinolin-5-yl)ethyl)amino)ethyl)phenoxy)ethyl)(methyl)carbamoyl)phenyl)sulfonyl)-4-((3-methoxyphenyl)amino)-8-methylquinoline-3-carboxamide] | > 300 nM | < 100 nM | < 100 nM | < 100 nM
COc1cccc(Nc2c(C(N)=O)cnc3c(C)cc(S(=O)(=O)c4ccc(-c5ccc(CNC[C@H](O)c6ccc(O)c7[nH]c(=O)ccc67)cc5)cc4)cc23)c1 [Example 48, (R)-6-((4′-(((2-hydroxy-2-(8-hydroxy-2-oxo-1,2-dihydroquinolin-5-yl)ethyl)amino)methyl)-[1,1′-biphenyl]-4-yl)sulfonyl)-4-((3-methoxyphenyl)amino)-8-methylquinoline-3-carboxamide] | < 100 nM | < 100 nM | < 100 nM | < 100 nM
COc1cccc(Nc2c(C(N)=O)cnc3c(C)cc(S(=O)(=O)c4cccc(C(=O)Nc5ccc(C#CCCCNC[C@H](O)c6ccc(O)c7c6OCC(=O)N7)cc5)c4)cc23)c1 [Example 32, (R)-6-((3-((4-(5-((2-hydroxy-2-(5-hydroxy-3-oxo-3,4-dihydro-2H-benzo[b][1,4]oxazin-8-yl)ethyl)amino)pent-1-yn-1-yl)phenyl)carbamoyl)phenyl)sulfonyl)-4-((3-methoxyphenyl)amino)-8-methylquinoline-3-carboxamide] | < 100 nM | < 100 nM | < 100 nM | < 100 nM
COc1cccc(Nc2c(C(N)=O)cnc3c(C)cc(S(=O)(=O)c4cccc(C(=O)Nc5ccc(C#CCCCN(C)C[C@H](O)c6ccc(O)c7[nH]c(=O)ccc67)cc5)c4)cc23)c1 [Example 8, (R)-6-((3-((4-(5-((2-hydroxy-2-(8-hydroxy-2-oxo-1,2-dihydroquinolin-5-yl)ethyl)(methyl)amino)pent-1-yn-1-yl)phenyl)carbamoyl)phenyl)sulfonyl)-4-((3-methoxyphenyl)amino)-8-methylquinoline-3-carboxamide] | > 300 nM | < 100 nM | < 100 nM | > 300 nM
COc1cccc(Nc2c(C(N)=O)cnc3c(C)cc(S(=O)(=O)c4cccc(C(=O)N5CCN(C(=O)c6cccc(CC(C)NC[C@H](O)c7ccc(O)c8[nH]c(=O)ccc78)c6)CC5)c4)cc23)c1 (stereo partly drawn) [Example 17, 6-((3-(4-(3-(2-(((R)-2-hydroxy-2-(8-hydroxy-2-oxo-1,2-dihydroquinolin-5-yl)ethyl)amino)propyl)benzoyl)piperazine-1-carbonyl)phenyl)sulfonyl)-4-((3-methoxyphenyl)amino)-8-methylquinoline-3-carboxamide] | < 100 nM | < 100 nM | < 100 nM | < 100 nM
COc1cccc(Nc2c(C(N)=O)cnc3c(C)cc(S(=O)(=O)c4cccc(C(=O)Nc5ccc(C#CCCCNC[C@H](O)c6ccc(O)c7[nH]c(=O)ccc67)cc5C)c4)cc23)c1 [Example 34, (R)-6-((3-((4-(5-((2-hydroxy-2-(8-hydroxy-2-oxo-1,2-dihydroquinolin-5-yl)ethyl)amino)pent-1-yn-1-yl)-2-methylphenyl)carbamoyl)phenyl)sulfonyl)-4-((3-methoxyphenyl)amino)-8-methylquinoline-3-carboxamide] | < 100 nM | < 100 nM | < 100 nM | < 100 nM
COc1cccc(Nc2c(C(N)=O)cnc3c(C)cc(S(=O)(=O)c4cccc(C(=O)N5CCN(CCNC[C@H](O)c6ccc(O)c7[nH]c(=O)ccc67)CC5)c4)cc23)c1 [Example 11, 6-[3-[[4-[2-[[2-Hydroxy-2-(8-hydroxy-2-oxo-1,2-dihydroquinolin-5-yl)ethyl]amino]ethyl]piperazine-1-yl]carbonyl]benzenesulfonyl]-4-(3-methoxyphenylamino)-8-methylquinoline-3-carboxyamide] | < 100 nM | < 100 nM | < 100 nM | < 100 nM
COc1cccc(Nc2c(C(N)=O)cnc3c(C)cc(S(=O)(=O)c4cccc(C(=O)Nc5ccc(C6(CCCCNC[C@H](O)c7ccc(O)c8[nH]c(=O)ccc78)SCCS6)cc5)c4)cc23)c1 [Example 37, (R)-6-((3-((4-(2-(4-((2-hydroxy-2-(8-hydroxy-2-oxo-1,2-dihydroquinolin-5-yl)ethyl)amino)butyl)-1,3-dithiolan-2-yl)phenyl)carbamoyl)phenyl)sulfonyl)-4-((3-methoxyphenyl)amino)-8-methylquinoline-3-carboxamide] | < 100 nM | < 100 nM | < 100 nM | < 100 nM
COc1cccc(Nc2c(C(N)=O)cnc3c(C)cc(S(=O)(=O)c4cccc(C(=O)Nc5ccc(CCCCCNC[C@H](O)c6ccc(O)c7[nH]c(=O)ccc67)cc5)c4)cc23)c1 [Example 10, (R)-6-[[3-[[4-[5-[[2-Hydroxy-2-(8-hydroxy-2-oxo-1,2-dihydroquinolin-5-yl)ethyl]amino]pentyl]phenyl]carbamoyl]phenyl]sulfonyl]-4-[(3-methoxyphenyl)amino]-8-methylquinoline-3-carboxamide 2,2,2-trifluoroacetate] | < 100 nM | < 100 nM | < 100 nM | < 100 nM
COc1cccc(Nc2c(C(N)=O)cnc3c(C)cc(S(=O)(=O)c4cccc(C(=O)N(C)c5ccc(C#CCCCNC[C@H](O)c6ccc(O)c7[nH]c(=O)ccc67)cc5)c4)cc23)c1 [Example 33, (R)-6-((3-((4-(5-((2-hydroxy-2-(8-hydroxy-2-oxo-1,2-dihydroquinolin-5-yl)ethyl)amino)pent-1-yn-1-yl)phenyl)(methyl)carbamoyl)phenyl)sulfonyl)-4-((3-methoxyphenyl)amino)-8-methylquinoline-3-carboxamide] | < 100 nM | < 100 nM | < 100 nM | < 100 nM
COc1cccc(Nc2c(C(N)=O)cnc3c(C)cc(S(=O)(=O)c4cccc(C(=O)N(C)CCCCCCNC[C@H](O)c5ccc(O)c6c5OCC(=O)N6)c4)cc23)c1 [Example 30, (R)-6-((3-((6-((2-hydroxy-2-(5-hydroxy-3-oxo-3,4-dihydro-2H-benzo[b][1,4]oxazin-8-yl)ethyl)amino)hexyl)(methyl)carbamoyl)phenyl)sulfonyl)-4-((3-methoxyphenyl)amino)-8-methylquinoline-3-carboxamide] | < 100 nM | < 100 nM | < 100 nM | < 100 nM
COc1cccc(Nc2c(C(N)=O)cnc3c(C)cc(S(=O)(=O)c4cccc(C(=O)NCCCCCCNC[C@H](O)c5ccc(O)c(NC=O)c5)c4)cc23)c1 [Example 27, (R)-6-[[3-[[6-[[2-(3-Formamido-4-hydroxyphenyl)-2-hydroxyethyl]amino]hexyl]carbamoyl]phenyl]sulfonyl]-4-((3-methoxyphenyl)amino]-8-methylquinoline-3-carboxamide] | < 100 nM | < 100 nM | < 100 nM | < 100 nM
COc1cccc(Nc2c(C(N)=O)cnc3c(C)cc(S(=O)(=O)c4cccc(C(=O)Nc5ccc(CCOCCCCCCNC[C@H](O)c6ccc(O)c7[nH]c(=O)ccc67)cc5)c4)cc23)c1 [Example 39, (R)-6-((3-((4-(2-((6-((2-hydroxy-2-(8-hydroxy-2-oxo-1,2-dihydroquinolin-5-yl)ethyl)amino)hexyl)oxy)ethyl)phenyl)carbamoyl)phenyl)sulfonyl)-4-((3-methoxyphenyl)amino)-8-methylquinoline-3-carboxamide] | < 100 nM | < 100 nM | < 100 nM | < 100 nM

Source: patent publication US8394829B2, “Bi-functional quinoline analogs” (Gilead Sciences, Inc., priority 2010, dated 2013)
